The text below walks through data of ChEMBL document CHEMBL1128976, “Unsaturated thioacetic acids as novel mechanism-based inhibitors of peptidylglycine -hydroxylating monooxygenase” (Bioorg Med Chem Lett, 1996).

This assay deals with T1, Peptidyl-glycine alpha-amidating monooxygenase (Homo sapiens) (UniProt P19021).
T1 sequence (whole entry): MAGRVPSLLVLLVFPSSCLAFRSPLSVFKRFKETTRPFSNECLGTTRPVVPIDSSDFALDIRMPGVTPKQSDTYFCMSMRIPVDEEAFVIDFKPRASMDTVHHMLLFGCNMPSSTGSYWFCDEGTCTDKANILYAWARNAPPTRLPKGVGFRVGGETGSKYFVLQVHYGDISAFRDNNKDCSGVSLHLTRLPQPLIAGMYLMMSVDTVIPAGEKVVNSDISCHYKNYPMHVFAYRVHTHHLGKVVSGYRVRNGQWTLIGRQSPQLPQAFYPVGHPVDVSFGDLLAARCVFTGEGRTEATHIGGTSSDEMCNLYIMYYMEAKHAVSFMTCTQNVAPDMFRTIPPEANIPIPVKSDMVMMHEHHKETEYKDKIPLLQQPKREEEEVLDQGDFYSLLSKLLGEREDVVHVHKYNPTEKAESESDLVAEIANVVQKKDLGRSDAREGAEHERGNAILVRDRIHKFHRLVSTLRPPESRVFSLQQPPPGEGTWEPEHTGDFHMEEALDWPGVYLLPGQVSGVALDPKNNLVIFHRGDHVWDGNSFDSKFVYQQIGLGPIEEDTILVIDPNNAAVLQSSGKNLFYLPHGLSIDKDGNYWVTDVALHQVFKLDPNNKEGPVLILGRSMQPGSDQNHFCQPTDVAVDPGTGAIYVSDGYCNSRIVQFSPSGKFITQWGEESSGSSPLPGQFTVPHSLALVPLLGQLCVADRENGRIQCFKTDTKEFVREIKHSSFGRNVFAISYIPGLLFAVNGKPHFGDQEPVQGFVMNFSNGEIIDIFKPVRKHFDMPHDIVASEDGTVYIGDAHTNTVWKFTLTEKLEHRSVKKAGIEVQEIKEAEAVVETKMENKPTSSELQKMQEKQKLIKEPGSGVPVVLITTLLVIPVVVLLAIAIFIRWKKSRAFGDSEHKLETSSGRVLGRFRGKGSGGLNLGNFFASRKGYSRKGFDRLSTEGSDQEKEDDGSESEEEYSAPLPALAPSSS
Description: Kinetic constant for inhibition of peptidylglycine alpha hydroxylating monooxygenase (PHM) was determined. Conditions: Equus caballus.

As for `O=C(O)CS/C=C/c1ccccc1`, the K inact amounted to 0.2 min⁻¹.

Take `O=C(O)CSC#Cc1ccccc1`: the K inact was 0.06 min⁻¹.
